Converted amounts (≈) assume the structure as drawn. Where two headings read alike, the source gives them in different places.
Assays:
Experiment in all cases: in vitro antibacterial MIC, agar plate dilution
Format in all cases: cell-based
[1] = tested on: Proteus rettgeri IO 83-21; conditions: Providencia rettgeri, IO8321, 18 h, 35° C., read-out: MIC
In short: (§1)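 Agar plate dilution on Mueller-Hinton agar, inoculum approximately 10^4 CFU per organism applied with a Steers replicator. MIC (mcg/ml) is the lowest compound concentration inhibiting visible growth after 18 hours at 35° C.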

[2] = tested on: Klebsiella pneumoniae CMC 84-31; conditions: Klebsiella pneumoniae, CMC8431, 18 h, 35° C., read-out: MIC
In short: as §1

[3] = tested on: Streptococcus faecalis UCI 85-19; conditions: Enterococcus faecalis, UCI8519, 18 h, 35° C., read-out: MIC
In short: as §1

Citrobacter div. K 82-24 = conditions: Citrobacter, DIV.K8224, 18 h, 35° C., read-out: MIC
In short: as §1

[4] = tested on: Morganella morganii VHG 84-12; conditions: Morganella morganii, VHG8412, 18 h, Morganella morganii VHG 84-12 (VGH 84-12 for Example 131), 35° C., read-out: MIC
In short: as §1

[5] = tested on: Staphylococcus aureus CMC 83-131; conditions: Staphylococcus aureus, CMC83131, 18 h, 35° C., read-out: MIC
In short: as §1

[6] = tested on: Serratia marcescens CMC 83-74; conditions: Serratia marcescens, CMC8374, 18 h, 35° C., read-out: MIC
In short: as §1

[7] = tested on: Serratia marcescens VGH 84-30; conditions: Serratia marcescens, VGH8430, 18 h, 35° C., read-out: MIC
In short: as §1

[8] = tested on: Pseudomonas aeruginosa LL-1244; conditions: Pseudomonas aeruginosa, LL1244, 18 h, 35° C., read-out: MIC
In short: as §1

[9] = tested on: Pseudomonas aeruginosa VGH 84-4; conditions: Pseudomonas aeruginosa, VGH844, 18 h, 35° C., read-out: MIC
In short: as §1

[10] = tested on: Klebsiella pneumoniae MOR 84-24; conditions: Klebsiella pneumoniae, MOR8424, 18 h, 35° C., read-out: MIC
In short: as §1

[11] = tested on: Streptococcus faecalis VGH 84-69; conditions: Enterococcus faecalis, VGH8469, 18 h, 35° C., read-out: MIC
In short: as §1

[12] = tested on: Escherichia coli VGH 84-19; conditions: Escherichia coli, VGH8419, 18 h, 35° C., read-out: MIC
In short: as §1

[13] = tested on: Staphylococcus aureus Smith; conditions: Staphylococcus aureus, 18 h, 35° C., read-out: MIC
In short: as §1

[14] = tested on: Klebsiella pneumoniae IO 83-5; conditions: Klebsiella pneumoniae, IO835, 18 h, 35° C., read-out: MIC
In short: as §1

Escherichia coli LL 311 = conditions: Escherichia coli, LL311, 18 h, 35° C., read-out: MIC
In short: as §1

[15] = tested on: Morganella morganii CMC 84-38; conditions: Morganella morganii, CMC8438, 18 h, 35° C., read-out: MIC
In short: as §1

[16] = tested on: Providencia stuarti CMC 83-3; conditions: Providencia, CMC833, 18 h, 35° C., read-out: MIC
In short: as §1

[17] = tested on: Proteus rettgeri CMC 84-41; conditions: Providencia rettgeri, CMC8441, 18 h, 35° C., read-out: MIC
In short: as §1

[18] = tested on: Staphylococcus aureus VGH 84-45; conditions: Staphylococcus aureus, VGH8445, 18 h, 35° C., read-out: MIC
In short: as §1

[19] = tested on: Pseudomonas aeruginosa K 84-16; conditions: Pseudomonas aeruginosa, K8416, 18 h, 35° C., read-out: MIC
In short: as §1

[20] = tested on: Pseudomonas aeruginosa VGH 84-3; conditions: Pseudomonas aeruginosa, VGH843, 18 h, 35° C., read-out: MIC
In short: as §1

[21] = tested on: Streptococcus faecalis UCI 85-30; conditions: Enterococcus faecalis, UCI8530, 18 h, 35° C., read-out: MIC
In short: as §1

[22] = tested on: Escherichia coli MOR 84-20; conditions: Escherichia coli, MOR8420, 18 h, 35° C., read-out: MIC
In short: as §1

[23] = tested on: Enterobacter cloacae K 84-10; conditions: Enterobacter cloacae, K8410, 18 h, 35° C., read-out: MIC
In short: as §1

[24] = tested on: Morganella morganii MOR 84-45; conditions: Morganella morganii, MOR8445, 18 h, 35° C., read-out: MIC
In short: as §1

[25] = tested on: Serratia marcescens IO 83-63; conditions: IO8363, 18 hours, 35° C.
In short: as §1

[26] = tested on: Serratia marcescens MOR 84-41; conditions: Serratia marcescens, MOR8441, 18 h, 35° C., read-out: MIC
In short: as §1

[27] = tested on: Pseudomonas aeruginosa CMC 83-20; conditions: Pseudomonas aeruginosa, CMC8320, 18 h, 35° C., read-out: MIC
In short: as §1

[28] = tested on: Escherichia coli CMC 84-11; conditions: Escherichia coli, CMC8411, 18 h, 35° C., read-out: MIC
In short: as §1

[29] = tested on: Enterobacter cloacae VGH 84-39; conditions: Enterobacter cloacae, VGH8439, 18 h, 35° C., read-out: MIC
In short: as §1

[30] = tested on: Escherichia coli ATCC 25922; conditions: 35° C.
In short: as §1

What does the source list for CN1CCN(c2c(F)c(F)c3c(=O)c(C(=O)O)cn(C4CC4)c3c2F)CC1 [Example 111, 1Cyclopropyl-5,6,8-trifluoro-1,4-dihydro-7-(4-methyl-1-piperazinyl) -4-oxo-3-quinolinecarboxylic acid]?
MIC [1]: 0.008 µg/mL (≈ 0.021 µM); MIC [2]: 0.015 µg/mL (≈ 0.0393 µM); MIC [3]: 4 µg/mL (≈ 10.5 µM); MIC (Citrobacter div. K 82-24): 0.002 µg/mL (≈ 0.00524 µM); MIC [4]: 0.06 µg/mL (≈ 0.157 µM); MIC [5]: 0.25 µg/mL (≈ 0.656 µM); MIC [6]: 4 µg/mL (≈ 10.5 µM); MIC [7]: 2 µg/mL (≈ 5.24 µM); MIC [8]: 4 µg/mL (≈ 10.5 µM); MIC [9]: 2 µg/mL (≈ 5.24 µM); MIC [10]: 0.06 µg/mL (≈ 0.157 µM); MIC [11]: 2 µg/mL (≈ 5.24 µM); MIC [12]: 0.004 µg/mL (≈ 0.0105 µM); MIC [13]: 0.25 µg/mL (≈ 0.656 µM); MIC [14]: 0.06 µg/mL (≈ 0.157 µM); MIC (Escherichia coli LL 311): 0.015 µg/mL (≈ 0.0393 µM); MIC [15]: 0.008 µg/mL (≈ 0.021 µM); MIC [16]: 4 µg/mL (≈ 10.5 µM); MIC [17]: 0.03 µg/mL (≈ 0.0787 µM); MIC [18]: 0.12 µg/mL (≈ 0.315 µM); MIC [19]: 4 µg/mL (≈ 10.5 µM); MIC [20]: 8 µg/mL (≈ 21 µM); MIC [21]: 2 µg/mL (≈ 5.24 µM); MIC [22]: 0.004 µg/mL (≈ 0.0105 µM); MIC [23]: 0.004 µg/mL (≈ 0.0105 µM); MIC [24]: 0.004 µg/mL (≈ 0.0105 µM); MIC [25]: 0.25 µg/mL (≈ 0.656 µM); MIC [26]: 0.06 µg/mL (≈ 0.157 µM); MIC [27]: 4 µg/mL (≈ 10.5 µM); MIC [28]: 0.015 µg/mL (≈ 0.0393 µM); MIC [29]: 0.004 µg/mL (≈ 0.0105 µM)

How did the MIC [1] turn out when CCn1cc(C(=O)O)c(=O)c2cc(F)c(N3CCNC(c4ccoc4)C3)cc21 (stereo not drawn) [Example 94, 1-Ethyl-6-fluoro-1,4-dihydro-4-oxo-7-[3-(3-furanyl)-1-piperazinyl]-3-quinolinecarboxylic acid] was run?
The MIC was 1 µg/mL (≈ 2.59 µM).

And the MIC [2]?
The MIC was 0.5 µg/mL (≈ 1.3 µM).

And the MIC [3]?
The MIC was 4 µg/mL (≈ 10.4 µM).

And the MIC (Citrobacter div. K 82-24)?
Its MIC is 0.25 µg/mL (≈ 0.649 µM).

What about the MIC [4] of the same compound?
Its MIC is 1 µg/mL (≈ 2.59 µM).

And the MIC [6]?
The MIC was 16 µg/mL (≈ 41.5 µM).

And the MIC [7]?
The MIC was 8 µg/mL (≈ 20.8 µM).

What about the MIC [8] of the same compound?
Its MIC is 8 µg/mL (≈ 20.8 µM).

And the MIC [9]?
Its MIC is 4 µg/mL (≈ 10.4 µM).

What about the MIC [10] of the same compound?
Its MIC is 1 µg/mL (≈ 2.59 µM).

And the MIC [11]?
The MIC was 2 µg/mL (≈ 5.19 µM).

What about the MIC [12] of the same compound?
Its MIC is 0.25 µg/mL (≈ 0.649 µM).

What about the MIC [13] of the same compound?
Its MIC is 0.12 µg/mL (≈ 0.311 µM).

And the MIC [14]?
The MIC was 1 µg/mL (≈ 2.59 µM).

What about the MIC (Escherichia coli LL 311) of the same compound?
The MIC was 0.12 µg/mL (≈ 0.311 µM).

What about the MIC [15] of the same compound?
Its MIC is 0.25 µg/mL (≈ 0.649 µM).

And the MIC [16]?
The MIC was 16 µg/mL (≈ 41.5 µM).

And the MIC [17]?
The MIC was 0.25 µg/mL (≈ 0.649 µM).

And the MIC [18]?
Its MIC is 0.12 µg/mL (≈ 0.311 µM).

What about the MIC [19] of the same compound?
Its MIC is 16 µg/mL (≈ 41.5 µM).

And the MIC [20]?
The MIC was > 16 µg/mL.

What about the MIC [21] of the same compound?
Its MIC is 4 µg/mL (≈ 10.4 µM).

What about the MIC [22] of the same compound?
Its MIC is 0.25 µg/mL (≈ 0.649 µM).

And the MIC [23]?
Its MIC is 0.25 µg/mL (≈ 0.649 µM).

And the MIC [24]?
Its MIC is 0.12 µg/mL (≈ 0.311 µM).

And the MIC [25]?
The MIC was 1 µg/mL (≈ 2.59 µM).

What about the MIC ([30]; 18 hours) of the same compound?
The MIC was 0.5 µg/mL (≈ 1.3 µM).

What about the MIC ([30]; Escherichia coli, ATCC25922, 18 h, read-out: MIC) of the same compound?
Its MIC is 0.25 µg/mL (≈ 0.649 µM).

What about the MIC [26] of the same compound?
The MIC was 0.5 µg/mL (≈ 1.3 µM).

What about the MIC [27] of the same compound?
Its MIC is 8 µg/mL (≈ 20.8 µM).

And the MIC [28]?
Its MIC is 0.12 µg/mL (≈ 0.311 µM).

And the MIC [29]?
The MIC was 0.5 µg/mL (≈ 1.3 µM).
